Assay results reported in patent publication US6737383B1, “Herbicidal oxadiazolidines” (priority 1999, dated 2004).

Experiments:
cocklebur = test: Test B pre/postemergence cocklebur; assay type: in vivo, Xanthium strumarium
Outline: (§1)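 Herbicidal effect was estimated by eye on a ten-point control scale after plants spent twelve to sixteen days in a greenhouse following soil or foliar treatment. Foliar sprays targeted plants at one to four leaves; all doses were formulated in a non-phytotoxic solvent with surfactant.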

corn = test: Test B pre/postemergence corn; assay type: in vivo, Zea mays
Outline: as §1

crabgrass = test: Test B pre/postemergence crabgrass; assay type: in vivo, Digitaria sanguinalis
Outline: as §1

giant foxtail = test: Test B pre/postemergence giant foxtail; assay type: in vivo, Setaria faberii
Outline: as §1

morningglory = test: Test B pre/postemergence morningglory; assay type: in vivo, Ipomoea hederacea
Outline: as §1

pigweed = test: Test B pre/postemergence pigweed; assay type: in vivo, Amaranthus retroflexus
Outline: as §1

rape = test: Test B pre/postemergence rape; assay type: in vivo, Brassica napus
Outline: as §1

soybean = test: Test B pre/postemergence soybean; assay type: in vivo, Glycine max
Outline: as §1

sugar beet = test: Test B pre/postemergence sugar beet; assay type: in vivo, Beta vulgaris
Outline: as §1

velvetleaf = test: Test B pre/postemergence velvetleaf; assay type: in vivo, Abutilon theophrasti
Outline: as §1

wheat = test: Test B pre/postemergence wheat; assay type: in vivo, Triticum aestivum
Outline: as §1

wild oat = test: Test B pre/postemergence wild oat; assay type: in vivo, Avena fatua
Outline: as §1

purple nutsedge = test: Test B pre/postemergence purple nutsedge; assay type: in vivo, Cyperus rotundus
Outline: as §1

rice = test: Test B flood test rice; assay type: in vivo, Oryza sativa
Outline: (§2)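 Read-out is a visual response score from 0 (no effect) to 10 (complete control), assigned by comparison with untreated controls. Treatment was applied at the 2-leaf stage, and plants stayed in the greenhouse for twelve to sixteen days before scoring.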

duck salad = test: Test B flood test duck salad; assay type: in vivo, Heteranthera limosa
Outline: as §2

bamyardgrass = test: Test B flood test barnyardgrass; assay type: in vivo, Echinochloa crus-galli
Outline: as §2

[1] = Postemergence, Rate 250 g/ha, scale 0 to 10
[2] = Postemergence, Rate 500 g/ha, scale of 0 to 10 where 0 is no effect and 10 is complete control
[3] = Preemergence, Rate 62 g/ha, scale 0 to 10 (0 no effect, 10 complete control)
[4] = Preemergence, Rate 125 g/ha, scale of 0 to 10 where 0 is no effect and 10 is complete control
[5] = Preemergence, Rate 250 g/ha, scale 0 to 10, 0 is no effect, 10 is complete control
[6] = Preemergence, Rate 500 g/ha, scale 0 to 10, 0 is no effect, 10 is complete control
[7] = Rate 62 g/ha, Postemergence, scale of 0 to 10 where 0 is no effect and 10 is complete control
[8] = Rate 125 g/ha, Postemergence, scale 0 to 10, 0 is no effect, 10 is complete control
[9] = Postemergence block (flood test species), Rate 250 g/ha, scale 0 to 10
[10] = Postemergence section (flood test species), Rate 500 g/ha, scale of 0 to 10 where 0 is no effect and 10 is complete control
[11] = Rate 125 g/ha, Postemergence section (flood test species), scale 0 to 10, 0 is no effect, 10 is complete control
[12] = Rate 62 g/ha, Postemergence (flood test species), scale of 0 to 10 where 0 is no effect and 10 is complete control

## CC(C)N(C(=O)n1oc(=O)n(CC2=NOCCC2)c1=O)c1ccccc1 [Compound 430]
cocklebur; [1]
  Cocklebur plant response rating: 0
cocklebur; [2]
  Cocklebur plant response rating: 1
cocklebur; [3]
  Plant response rating, Cocklebur: 0
cocklebur; [4]
  Plant response rating, Cocklebur: 0
cocklebur; [5]
  Cocklebur plant response rating: 0
cocklebur; [6]
  Cocklebur plant response rating: 0
cocklebur; [7]
  Cocklebur plant response rating: 0
cocklebur; [8]
  Cocklebur plant response rating: 0
corn; [1]
  Corn plant response rating: 2
corn; [2]
  Corn plant response rating: 4
corn; [3]
  Plant response rating, Corn: 0
corn; [4]
  Plant response rating, Corn: 0
corn; [5]
  Corn plant response rating: 0
corn; [6]
  Corn plant response rating: 2
corn; [7]
  Corn plant response rating: 0
corn; [8]
  Corn plant response rating: 0
crabgrass; [1]
  Crabgrass plant response rating: 8
crabgrass; [2]
  Crabgrass plant response rating: 9
crabgrass; [3]
  Plant response rating, Crabgrass: 9
crabgrass; [4]
  Plant response rating, Crabgrass: 10
crabgrass; [5]
  Crabgrass plant response rating: 10
crabgrass; [6]
  Crabgrass plant response rating: 10
crabgrass; [7]
  Crabgrass plant response rating: 1
crabgrass; [8]
  Crabgrass plant response rating: 2
Giant foxtail; [1]
  Giant foxtail plant response rating: 9
Giant foxtail; [2]
  Giant foxtail plant response rating: 9
Giant foxtail; [3]
  Plant response rating, Giant foxtail: 10
Giant foxtail; [4]
  Plant response rating, Giant foxtail: 10
Giant foxtail; [5]
  Giant foxtail plant response rating: 10
Giant foxtail; [6]
  Giant foxtail plant response rating: 10
Giant foxtail; [7]
  Giant foxtail plant response rating: 6
Giant foxtail; [8]
  Giant foxtail plant response rating: 8
morningglory; [1]
  Morningglory plant response rating: 3
morningglory; [2]
  Morningglory plant response rating: 3
morningglory; [3]
  Plant response rating, Morningglory: 0
morningglory; [4]
  Plant response rating, Morningglory: 0
morningglory; [5]
  Morningglory plant response rating: 0
morningglory; [6]
  Morningglory plant response rating: 0
morningglory; [8]
  Morningglory plant response rating: 2
pigweed; [1]
  Redroot pigweed plant response rating: 3
pigweed; [2]
  Redroot pigweed plant response rating: 3
pigweed; [3]
  Plant response rating, Redroot pigweed: 0
pigweed; [4]
  Plant response rating, Redroot pigweed: 0
pigweed; [5]
  Redroot pigweed plant response rating: 2
pigweed; [6]
  Redroot pigweed plant response rating: 7
pigweed; [8]
  Redroot pigweed plant response rating: 2
rape; [1]
  Rape plant response rating: 0
rape; [2]
  Rape plant response rating: 0
rape; [3]
  Plant response rating, Rape: 0
rape; [4]
  Plant response rating, Rape: 0
rape; [5]
  Rape plant response rating: 0
rape; [6]
  Rape plant response rating: 4
rape; [8]
  Rape plant response rating: 0
soybean; [1]
  Soybean plant response rating: 3
soybean; [2]
  Soybean plant response rating: 3
soybean; [3]
  Plant response rating, Soybean: 0
soybean; [4]
  Plant response rating, Soybean: 0
soybean; [5]
  Soybean plant response rating: 0
soybean; [6]
  Soybean plant response rating: 0
soybean; [8]
  Soybean plant response rating: 1
Sugar beet; [1]
  Sugarbeets plant response rating: 0
Sugar beet; [2]
  Sugarbeets plant response rating: 0
Sugar beet; [3]
  Plant response rating, Sugarbeets: 0
Sugar beet; [4]
  Plant response rating, Sugarbeets: 0
Sugar beet; [5]
  Sugarbeets plant response rating: 0
Sugar beet; [6]
  Sugarbeets plant response rating: 0
Sugar beet; [8]
  Sugarbeets plant response rating: 0
velvetleaf; [1]
  Velvetleaf plant response rating: 0
velvetleaf; [2]
  Velvetleaf plant response rating: 3
velvetleaf; [3]
  Plant response rating, Velvetleaf: 0
velvetleaf; [4]
  Plant response rating, Velvetleaf: 2
velvetleaf; [5]
  Velvetleaf plant response rating: 4
velvetleaf; [6]
  Velvetleaf plant response rating: 7
velvetleaf; [8]
  Velvetleaf plant response rating: 0
wheat; [1]
  Wheat plant response rating: 0
wheat; [2]
  Wheat plant response rating: 0
wheat; [3]
  Plant response rating, Wheat: 0
wheat; [4]
  Plant response rating, Wheat: 0
wheat; [5]
  Wheat plant response rating: 0
wheat; [6]
  Wheat plant response rating: 5
wheat; [8]
  Wheat plant response rating: 0
Wild oat; [1]
  Wild oats plant response rating: 0
Wild oat; [2]
  Wild oats plant response rating: 0
Wild oat; [3]
  Plant response rating, Wild oats: 0
Wild oat; [4]
  Plant response rating, Wild oats: 0
Wild oat; [5]
  Wild oats plant response rating: 3
Wild oat; [6]
  Wild oats plant response rating: 3
Wild oat; [8]
  Wild oats plant response rating: 0
Purple nutsedge; [1]
  Nutsedge plant response rating: 2
Purple nutsedge; [2]
  Nutsedge plant response rating: 6
Purple nutsedge; [3]
  Plant response rating, Nutsedge: 0
Purple nutsedge; [4]
  Plant response rating, Nutsedge: 0
Purple nutsedge; [5]
  Nutsedge plant response rating: 0
Purple nutsedge; [6]
  Nutsedge plant response rating: 0
Purple nutsedge; [8]
  Nutsedge plant response rating: 0
rice; [9]
  Rice plant response rating: 0
rice; [10]
  Rice plant response rating: 0
rice; [11]
  Rice plant response rating: 0
Duck salad; [9]
  Ducksalad plant response rating: 0
Duck salad; [10]
  Ducksalad plant response rating: 0
Duck salad; [12]
  Ducksalad plant response rating: 0
Duck salad; [11]
  Ducksalad plant response rating: 0
bamyardgrass; [9]
  Barnyardgrass plant response rating: 0
bamyardgrass; [10]
  Barnyardgrass plant response rating: 0
bamyardgrass; [12]
  Barnyardgrass plant response rating: 0
bamyardgrass; [11]
  Barnyardgrass plant response rating: 0
